Experimental data as given in PubChem BioAssay (NCI).
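Exposure lasted 48 hours, with cells grown in 96-well plates and compounds tested at five concentrations. Definition used: TGI = concentration required for complete inhibition of growth.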

Experiments:
Assay in all cases: NCI tumour cell line growth inhibition, 48 h
[1] = system: NCI-H460 lung
[2] = system: RPMI-8226 leukemia
[3] = system: A549 NSCLC
[4] = system: PC-3 prostate
[5] = system: EKVX NSCLC
[6] = system: 786-0 renal
[7] = system: SR leukemia
[8] = system: K-562 leukemia
[9] = system: CCRF-CEM leukemia
[10] = system: SK-MEL-2 melanoma
[11] = system: M14 melanoma
[12] = system: NCI-H226 lung

SMILES | TGI [1] [µM] | TGI [2] [µM] | TGI [3] [µM] | TGI [4] [µM] | TGI [5] [µM] | TGI [6] [µM] | TGI [7] [µM] | TGI [8] [µM] | TGI [9] [µM] | TGI [10] [µM] | TGI [11] [µM] | TGI [12] [µM]
Cc1cc2nc(N3C(=O)/C(=C/c4ccccc4S)N=C3c3ccccc3)sc2cc1C | > 100 | > 100 | > 100 | 58.1 | > 100 | 60.5 | > 100 | > 100 | 46.6 | 56.7 | > 100 | –
COc1cccc(-c2nc3ccccc3c(=O)[nH]2)c1OC | > 100 | 49.4 | > 100 | > 100 | > 100 | > 100 | > 100 | – | > 100 | > 100 | > 100 | > 100
CC1OC(OC2C(OC(=O)[C@@H]3CC(C)(C)C[C@@H]4C5=CC[C@@H]6[C@@]7(C)C[C@H](O)[C@H](OC8OC(CO)C(O)C(O)C8O)[C@@](C)(CO)C7[C@H](O)C[C@@]6(C)[C@]5(C)C[C@@H](O)[C@H]43)OCC(O)C2O)C(O)C(O)C1O (some centres undefined) | > 15 | – | – | > 15 | > 15 | > 15 | – | > 15 | > 15 | > 15 | > 15 | > 15
C=CCc1ccccc1CC1(OCC)OC(=O)c2ccccc21 (centres undefined) | > 100 | > 100 | > 100 | > 100 | > 100 | > 100 | – | > 100 | – | > 100 | > 100 | > 100
Cc1ccc(/C=C2\CN(C)CC3C2=NN(c2ccccc2)C3c2ccc(C)cc2)cc1 (centres undefined) | > 100 | – | > 100 | > 100 | > 100 | > 100 | – | > 100 | 95.7 | > 100 | > 100 | > 100
CC1=C(C)C1[N+](=O)[O-] | > 100 | > 100 | > 100 | > 100 | > 100 | > 100 | – | > 100 | > 100 | – | > 100 | > 100
CN(C(=O)C1CCCCCC1=O)c1ccccc1Cl (centres undefined) | > 100 | > 100 | > 100 | – | > 100 | > 100 | – | – | – | – | > 100 | > 100
CN(N)/N=N/c1nc[nH]c1[N+](=O)[O-] | > 100 | 57.3 | > 100 | > 100 | > 100 | 55.2 | – | 73 | 33 | > 100 | > 100 | > 100
COC(=O)C1(C(=O)OC)Cc2ccc(C)cc2C2=C1C(=O)c1ccccc1C2=O | > 100 | – | > 100 | 31.3 | 29.4 | 68.9 | > 100 | 46.5 | 49.4 | 30.7 | – | > 100
Cc1c(Cl)c(S(N)(=O)=O)cc2c1NC=NS2(=O)=O | > 100 | > 100 | > 100 | > 100 | > 100 | > 100 | – | > 100 | > 100 | – | > 100 | > 100
